Here are results for six compounds from ChEMBL document CHEMBL4765228, “Indole-like Trk receptor antagonists” (Eur J Med Chem, 2016).

In assay [1] the target is Ephrin type-A receptor 2 (Homo sapiens) (UniProt P29317). The assay can be described thus: Inhibition of human EPHA2 assessed as residual activity at 0.1 uM relative to control.
For assay [2], the target named is Serine/threonine-protein kinase Chk2 (Homo sapiens) (UniProt O96017). The assay is described as follows: Inhibition of human CHK2 assessed as residual activity at 0.1 uM relative to control.
The target of assay [3] is RAC-alpha serine/threonine-protein kinase (Homo sapiens) (UniProt P31749). The assay can be described thus: Inhibition of human AKT1 (104 to 408 residues) assessed as residual activity at 1 uM relative to control.
The target in assay [4] is Myosin light chain kinase, smooth muscle (Homo sapiens) (UniProt Q15746). The assay can be described thus: Inhibition of human MYLK assessed as residual activity at 0.1 uM relative to control.
The target in assay [5] is Mitogen-activated protein kinase 8 (Homo sapiens) (UniProt P45983). The assay is described as follows: Inhibition of human JNK1 assessed as residual activity at 0.1 uM relative to control.
The target in assay [6] is Protein kinase C alpha type (Homo sapiens) (UniProt P17252). The assay can be described thus: Inhibition of human PKCalpha assessed as residual activity at 1 uM relative to control.
For assay [7], the target named is Mitogen-activated protein kinase 14 (Homo sapiens) (UniProt Q16539). The assay can be described thus: Inhibition of human p38-alpha assessed as residual activity at 0.1 uM relative to control.
In assay [8] the target is Ribosomal protein S6 kinase alpha-5 (Homo sapiens) (UniProt O75582). The assay can be described thus: Inhibition of human RPS6KA5 assessed as residual activity at 0.1 uM relative to control.
The target of assay [9] is 5'-AMP-activated protein kinase catalytic subunit alpha-1 (Homo sapiens) (UniProt Q13131). The assay can be described thus: Inhibition of human AMPKalpha1 (1 to 550 residues assessed as residual activity at 1 uM relative to control.
Assay [10] concerns the target T1, Interleukin-1 receptor-associated kinase 4 (Homo sapiens) (UniProt Q9NWZ3).
T1 sequence (whole entry): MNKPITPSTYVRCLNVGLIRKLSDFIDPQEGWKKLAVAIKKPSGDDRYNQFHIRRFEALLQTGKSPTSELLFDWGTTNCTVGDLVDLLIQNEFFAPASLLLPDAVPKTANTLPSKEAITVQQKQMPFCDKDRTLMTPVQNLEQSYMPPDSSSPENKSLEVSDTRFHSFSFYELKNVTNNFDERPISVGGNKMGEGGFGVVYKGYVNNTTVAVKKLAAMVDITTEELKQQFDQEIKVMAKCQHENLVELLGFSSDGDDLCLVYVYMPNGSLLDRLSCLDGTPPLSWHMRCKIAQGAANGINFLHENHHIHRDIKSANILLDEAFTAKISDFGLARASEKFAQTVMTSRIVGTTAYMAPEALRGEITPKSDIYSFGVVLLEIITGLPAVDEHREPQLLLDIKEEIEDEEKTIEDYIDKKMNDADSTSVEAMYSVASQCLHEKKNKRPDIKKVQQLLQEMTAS
The assay is described as follows: Inhibition of human untagged IRAK4 assessed as residual activity at 1 uM relative to control.

The target in assay [11] is Receptor tyrosine-protein kinase erbB-4 (Homo sapiens) (UniProt Q15303). The assay is described as follows: Inhibition of human ERBB4 assessed as residual activity at 1 uM relative to control.
The target in assay [12] is Homeodomain-interacting protein kinase 2 (Homo sapiens) (UniProt Q9H2X6). The assay can be described thus: Inhibition of human HIPK2 assessed as residual activity at 1 uM relative to control.
The target in assay [13] is 3-phosphoinositide-dependent protein kinase 1 (Homo sapiens) (UniProt O15530). The assay is described as follows: Inhibition of human PDK1 assessed as residual activity at 1 uM relative to control.
The target in assay [14] is T2, Serine/threonine-protein kinase 3 (Homo sapiens) (UniProt Q13188).
T2 sequence (whole entry): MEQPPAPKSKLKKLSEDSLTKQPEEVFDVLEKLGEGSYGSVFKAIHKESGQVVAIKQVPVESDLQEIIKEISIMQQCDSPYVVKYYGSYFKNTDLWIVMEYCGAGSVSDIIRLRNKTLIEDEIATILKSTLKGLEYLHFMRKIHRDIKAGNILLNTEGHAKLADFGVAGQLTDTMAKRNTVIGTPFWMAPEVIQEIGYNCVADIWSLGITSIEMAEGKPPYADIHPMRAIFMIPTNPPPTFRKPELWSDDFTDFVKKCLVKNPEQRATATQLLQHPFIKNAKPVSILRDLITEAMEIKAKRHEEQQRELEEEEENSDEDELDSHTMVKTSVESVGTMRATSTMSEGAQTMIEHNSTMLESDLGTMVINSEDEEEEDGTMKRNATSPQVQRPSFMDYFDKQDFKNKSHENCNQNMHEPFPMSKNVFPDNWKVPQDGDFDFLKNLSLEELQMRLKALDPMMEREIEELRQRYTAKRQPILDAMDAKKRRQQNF
The assay is described as follows: Inhibition of human MST2 assessed as residual activity at 1 uM relative to control.

The target of assay [15] is Proto-oncogene tyrosine-protein kinase Src (Homo sapiens) (UniProt P12931). The assay is described as follows: Inhibition of human GST-HIS-tagged SRC assessed as residual activity at 0.1 uM relative to control.
Assay [16] concerns the target T3, Mitogen-activated protein kinase kinase kinase 7 (Homo sapiens) (UniProt O43318).
T3 sequence (whole entry): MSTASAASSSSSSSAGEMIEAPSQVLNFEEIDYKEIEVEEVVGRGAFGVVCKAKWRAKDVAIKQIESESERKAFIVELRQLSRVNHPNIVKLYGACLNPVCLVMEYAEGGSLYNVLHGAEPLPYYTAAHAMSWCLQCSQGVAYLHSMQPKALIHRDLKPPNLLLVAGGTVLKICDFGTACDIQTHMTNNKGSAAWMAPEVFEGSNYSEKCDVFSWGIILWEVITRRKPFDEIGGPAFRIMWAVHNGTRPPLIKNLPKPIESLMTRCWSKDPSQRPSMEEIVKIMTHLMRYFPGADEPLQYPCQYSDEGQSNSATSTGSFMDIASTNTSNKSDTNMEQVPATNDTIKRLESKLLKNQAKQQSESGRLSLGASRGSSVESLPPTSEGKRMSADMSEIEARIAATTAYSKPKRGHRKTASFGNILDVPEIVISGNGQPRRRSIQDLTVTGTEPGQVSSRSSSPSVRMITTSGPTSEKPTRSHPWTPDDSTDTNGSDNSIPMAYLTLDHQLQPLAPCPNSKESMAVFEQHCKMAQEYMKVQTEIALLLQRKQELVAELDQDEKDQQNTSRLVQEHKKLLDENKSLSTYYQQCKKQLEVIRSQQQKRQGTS
The assay can be described thus: Inhibition of human MAP3K7 assessed as residual activity at 0.1 uM relative to control.

Assay [17] addresses Calcium/calmodulin-dependent protein kinase type 1D (Homo sapiens) (UniProt Q8IU85). The assay is described as follows: Inhibition of human CAMK1D assessed as residual activity at 0.1 uM relative to control.
Assay [18] addresses Tyrosine-protein kinase JAK2 (Homo sapiens) (UniProt O60674). The assay is described as follows: Inhibition of human JAK2 assessed as residual activity at 0.1 uM relative to control.
For assay [19], the target named is Glycogen synthase kinase-3 beta (Homo sapiens) (UniProt P49841). The assay can be described thus: Inhibition of human GSK3-beta assessed as residual activity at 1 uM relative to control.

RAC-alpha serine/threonine-protein kinase (Homo sapiens), sequence (P31749 whole entry, the tested form may be a part): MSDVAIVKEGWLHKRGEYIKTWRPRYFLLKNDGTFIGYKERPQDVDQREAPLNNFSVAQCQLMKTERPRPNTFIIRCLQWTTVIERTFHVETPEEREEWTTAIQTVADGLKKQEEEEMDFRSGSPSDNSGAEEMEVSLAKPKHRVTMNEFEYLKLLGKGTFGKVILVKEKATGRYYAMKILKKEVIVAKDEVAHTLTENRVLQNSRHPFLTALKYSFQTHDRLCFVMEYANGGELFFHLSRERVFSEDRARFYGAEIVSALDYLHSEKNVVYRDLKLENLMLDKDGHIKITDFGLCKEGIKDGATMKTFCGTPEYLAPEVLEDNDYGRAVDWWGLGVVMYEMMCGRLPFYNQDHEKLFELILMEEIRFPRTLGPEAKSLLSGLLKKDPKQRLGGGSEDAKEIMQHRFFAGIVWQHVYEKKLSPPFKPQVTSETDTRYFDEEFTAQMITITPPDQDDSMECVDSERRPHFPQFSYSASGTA
Ribosomal protein S6 kinase alpha-5 (Homo sapiens), sequence (O75582 whole entry, looked up, the tested form may be a part): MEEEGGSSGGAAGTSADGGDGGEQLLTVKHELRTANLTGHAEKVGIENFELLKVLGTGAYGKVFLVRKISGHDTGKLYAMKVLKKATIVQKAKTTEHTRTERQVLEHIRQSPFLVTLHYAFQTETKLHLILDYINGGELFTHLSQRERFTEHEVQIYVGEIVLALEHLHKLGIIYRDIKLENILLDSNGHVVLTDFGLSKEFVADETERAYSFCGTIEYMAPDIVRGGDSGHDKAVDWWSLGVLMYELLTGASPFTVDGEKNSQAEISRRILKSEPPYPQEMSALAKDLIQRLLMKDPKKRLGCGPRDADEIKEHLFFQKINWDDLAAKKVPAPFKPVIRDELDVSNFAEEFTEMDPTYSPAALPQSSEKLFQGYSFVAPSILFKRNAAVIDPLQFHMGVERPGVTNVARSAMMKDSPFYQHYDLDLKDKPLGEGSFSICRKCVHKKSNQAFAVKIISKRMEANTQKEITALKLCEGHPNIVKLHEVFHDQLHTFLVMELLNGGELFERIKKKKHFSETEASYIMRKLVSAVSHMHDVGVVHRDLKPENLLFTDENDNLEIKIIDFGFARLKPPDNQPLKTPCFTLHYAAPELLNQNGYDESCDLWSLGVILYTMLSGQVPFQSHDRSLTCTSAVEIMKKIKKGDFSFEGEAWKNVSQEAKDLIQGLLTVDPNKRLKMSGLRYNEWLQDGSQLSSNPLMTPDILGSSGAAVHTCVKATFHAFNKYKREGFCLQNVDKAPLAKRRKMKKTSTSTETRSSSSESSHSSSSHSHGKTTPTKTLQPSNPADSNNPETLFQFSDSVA
Mitogen-activated protein kinase 14 (Homo sapiens), sequence (Q16539 whole entry): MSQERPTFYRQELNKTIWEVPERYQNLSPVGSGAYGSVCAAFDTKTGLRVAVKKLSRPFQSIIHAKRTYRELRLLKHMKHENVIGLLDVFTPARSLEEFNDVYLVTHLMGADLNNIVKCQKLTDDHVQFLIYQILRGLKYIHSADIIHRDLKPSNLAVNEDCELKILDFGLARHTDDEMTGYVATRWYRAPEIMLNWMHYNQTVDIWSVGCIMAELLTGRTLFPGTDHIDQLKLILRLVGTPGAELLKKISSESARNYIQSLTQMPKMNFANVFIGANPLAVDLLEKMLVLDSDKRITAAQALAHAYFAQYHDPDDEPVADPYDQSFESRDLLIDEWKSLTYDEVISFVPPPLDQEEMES
Ephrin type-A receptor 2 (Homo sapiens), sequence (P29317 whole entry): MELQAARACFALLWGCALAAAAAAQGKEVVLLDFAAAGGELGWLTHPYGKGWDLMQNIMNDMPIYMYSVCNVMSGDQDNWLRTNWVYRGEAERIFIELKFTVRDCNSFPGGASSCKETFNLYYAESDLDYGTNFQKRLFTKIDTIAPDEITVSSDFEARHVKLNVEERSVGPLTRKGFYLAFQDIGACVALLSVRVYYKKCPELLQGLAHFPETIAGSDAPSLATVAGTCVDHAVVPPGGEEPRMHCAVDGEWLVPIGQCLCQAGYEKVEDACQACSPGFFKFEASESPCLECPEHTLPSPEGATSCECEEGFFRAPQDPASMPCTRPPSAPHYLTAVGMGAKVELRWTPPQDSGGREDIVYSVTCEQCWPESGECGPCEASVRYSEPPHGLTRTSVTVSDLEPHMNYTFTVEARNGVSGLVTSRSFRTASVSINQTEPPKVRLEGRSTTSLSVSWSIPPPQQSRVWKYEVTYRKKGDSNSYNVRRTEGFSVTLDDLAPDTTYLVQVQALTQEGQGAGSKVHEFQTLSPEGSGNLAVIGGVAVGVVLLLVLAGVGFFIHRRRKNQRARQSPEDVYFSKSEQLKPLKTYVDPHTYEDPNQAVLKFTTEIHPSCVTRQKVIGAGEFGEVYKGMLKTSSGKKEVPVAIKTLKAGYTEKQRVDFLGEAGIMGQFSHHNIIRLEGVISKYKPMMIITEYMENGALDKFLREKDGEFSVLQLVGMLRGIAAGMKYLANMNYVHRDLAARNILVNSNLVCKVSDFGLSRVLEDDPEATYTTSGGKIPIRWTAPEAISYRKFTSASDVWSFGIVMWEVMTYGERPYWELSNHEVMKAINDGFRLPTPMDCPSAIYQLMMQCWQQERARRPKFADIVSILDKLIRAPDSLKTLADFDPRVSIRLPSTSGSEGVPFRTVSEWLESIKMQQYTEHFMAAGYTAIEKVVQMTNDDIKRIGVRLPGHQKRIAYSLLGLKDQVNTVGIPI
Proto-oncogene tyrosine-protein kinase Src (Homo sapiens), sequence (P12931 2-536 limits assumed): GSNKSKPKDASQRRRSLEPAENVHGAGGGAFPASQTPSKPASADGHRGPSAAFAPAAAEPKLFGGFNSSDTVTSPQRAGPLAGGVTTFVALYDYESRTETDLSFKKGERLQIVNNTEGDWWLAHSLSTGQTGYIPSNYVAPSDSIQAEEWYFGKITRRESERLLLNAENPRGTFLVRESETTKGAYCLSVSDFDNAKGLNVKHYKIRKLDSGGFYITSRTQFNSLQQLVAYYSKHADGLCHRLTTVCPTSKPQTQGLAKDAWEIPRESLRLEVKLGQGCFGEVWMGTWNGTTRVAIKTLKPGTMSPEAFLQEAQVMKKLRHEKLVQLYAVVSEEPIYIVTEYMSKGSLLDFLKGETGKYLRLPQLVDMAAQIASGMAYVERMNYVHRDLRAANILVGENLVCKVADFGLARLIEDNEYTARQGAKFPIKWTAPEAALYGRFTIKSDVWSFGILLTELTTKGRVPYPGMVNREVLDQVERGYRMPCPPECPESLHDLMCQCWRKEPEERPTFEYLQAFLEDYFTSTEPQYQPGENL
5'-AMP-activated protein kinase catalytic subunit alpha-1 (Homo sapiens), sequence (Q13131 whole entry, looked up, the tested form may be a part): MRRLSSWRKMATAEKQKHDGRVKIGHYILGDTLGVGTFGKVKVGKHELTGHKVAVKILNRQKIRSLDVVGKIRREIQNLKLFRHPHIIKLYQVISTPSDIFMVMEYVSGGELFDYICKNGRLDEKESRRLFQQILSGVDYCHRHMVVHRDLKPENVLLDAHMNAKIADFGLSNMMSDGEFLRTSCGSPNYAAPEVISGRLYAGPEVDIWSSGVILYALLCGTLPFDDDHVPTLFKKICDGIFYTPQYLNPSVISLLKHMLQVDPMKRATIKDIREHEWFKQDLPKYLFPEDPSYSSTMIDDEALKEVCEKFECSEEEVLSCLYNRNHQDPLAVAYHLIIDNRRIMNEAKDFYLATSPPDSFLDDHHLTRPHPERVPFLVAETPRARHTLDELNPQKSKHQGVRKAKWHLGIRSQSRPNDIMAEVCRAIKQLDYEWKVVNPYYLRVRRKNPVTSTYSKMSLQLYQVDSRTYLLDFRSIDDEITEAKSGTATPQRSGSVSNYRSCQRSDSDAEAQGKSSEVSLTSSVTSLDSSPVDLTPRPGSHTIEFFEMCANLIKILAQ
Calcium/calmodulin-dependent protein kinase type 1D (Homo sapiens), sequence (Q8IU85 whole entry, looked up): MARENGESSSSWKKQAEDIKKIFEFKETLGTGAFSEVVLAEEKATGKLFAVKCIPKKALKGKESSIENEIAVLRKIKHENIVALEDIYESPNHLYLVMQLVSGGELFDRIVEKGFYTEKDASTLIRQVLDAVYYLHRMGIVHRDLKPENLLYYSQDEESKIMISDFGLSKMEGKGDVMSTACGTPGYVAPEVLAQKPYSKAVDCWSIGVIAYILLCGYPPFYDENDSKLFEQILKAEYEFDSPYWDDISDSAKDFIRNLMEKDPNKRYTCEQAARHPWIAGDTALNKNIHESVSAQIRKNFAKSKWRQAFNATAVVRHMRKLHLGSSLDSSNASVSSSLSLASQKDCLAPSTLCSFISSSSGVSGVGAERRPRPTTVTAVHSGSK

In the case of `CNS(=O)(=O)c1ccc2c(c1)/C(=C/c1cn(C)c3ccc(OC)cc13)C(=O)N2`, the Activity in [1] came out at 100%; in [2] it was 93%; in assay [3], 98%; in assay [4] it was 92%; in [5], 103%; in assay [6] it was 103%. In addition, the Activity in assay [7] worked out at 102%; in [8], 96%; in [9] it was 88%; in [10] it was 37%; in [11], 42%; in assay [12] it was 102%. Moreover, the Activity in [13] is 123%; in assay [14] it was 77%; in assay [15], 92%; in [16], 104%; in assay [17], 90%; in assay [18], 89%. Moreover, the Activity in assay [19] amounted to 90%.
With `Cn1cc(/C=C2\C(=O)Nc3ccc(S(N)(=O)=O)cc32)c2ccccc21`, the Activity in assay [1] amounted to 99%; in assay [2], 9%; in assay [3], 97%; in assay [4] it was 97%; in assay [5] it was 121%; in [6], 94%. Also, the Activity in [7] was 107%; in assay [8], 99%; in assay [9], 56%; in assay [10], 3%; in assay [11] it was 101%; in assay [12], 103%. Besides, the Activity was 70% in assay [13]; 62% in assay [14]; 124% in [15]; 85% in [16]; 106% in assay [17]; 85% in [18]. The Activity in assay [19] was 92%.
For `COc1ccc2c(c1)c(/C=C1\C(=O)Nc3ccc(S(N)(=O)=O)cc31)cn2C`, the Activity was found to be 98% in assay [1]; 35% in assay [2]; 96% in [3]; 94% in [4]; 110% in assay [5]; 102% in assay [6]. For the same compound, the Activity in assay [7] amounted to 106%; in assay [8], 103%; in assay [9], 89%; in assay [10] it was 20%; in [11], 87%; in assay [12], 81%. Moreover, the Activity in assay [13] was found to be 75%; in assay [14], 84%; in [15] it was 113%; in assay [16] it was 93%; in assay [17] it was 84%; in [18] it was 90%. Moreover, the Activity in assay [19] is 83%.
Take `CN(C)S(=O)(=O)c1ccc2c(c1)/C(=C/c1cn(C)c3ccc(O)cc13)C(=O)N2`: the Activity in assay [1] turned out to be 111%; in assay [2], 94%; in assay [3], 105%; in assay [4], 91%; in assay [5] it was 105%; in assay [6], 103%. For the same compound, the Activity came to 97% in [7]; 106% in assay [8]; 87% in [9]; 52% in assay [10]; 95% in [11]; 96% in assay [12]. For the same compound, the Activity was determined as 83% in assay [13]; 83% in assay [14]; 79% in assay [15]; 101% in [16]; 100% in [17]; 78% in assay [18]. Besides, the Activity in assay [19] stood at 92%.
`COc1ccc2c(c1)c(/C=C1\C(=O)Nc3ccc(S(=O)(=O)N(C)C)cc31)cn2C`: the Activity was determined as 106% in [1]; 100% in [2]; 93% in assay [3]; 94% in [4]; 103% in assay [5]; 95% in assay [6]. For the same compound, the Activity in assay [7] was determined as 95%; in [8], 105%; in assay [9] it was 91%; in [10], 83%; in assay [11], 85%; in [12], 85%. Besides, the Activity in [13] turned out to be 84%; in assay [14], 104%; in [15] it was 93%; in [16] it was 106%; in assay [17], 99%; in assay [18], 88%. The Activity in [19] was found to be 97%.
For `COc1ccc2[nH]cc(/C=C3\C(=O)Nc4ccc(S(N)(=O)=O)cc43)c2c1`, the Activity stood at 110% in assay [1]; 59% in [2]; 101% in [3]; 94% in assay [4]; 103% in assay [5]; 87% in assay [6]. For the same compound, the Activity in [7] came out at 102%; in assay [8], 93%; in [9], 72%; in [10], 9%; in [11] it was 60%; in [12] it was 84%. The Activity in assay [13] worked out at 66%; in assay [14], 64%; in assay [15], 107%; in [16], 93%; in [17], 97%; in assay [18], 91%. Also, the Activity in assay [19] was found to be 79%.
